Experimental data taken from patent publication US20240116945A1, “EXATECAN-DERIVED TOPOISOMERASE-1 INHIBITORS PHARMACEUTICAL COMPOSITIONS, AND USES THEREOF” (Merck Sharp & Dohme LLC, priority 2022, published 2024).

tested on: Jeko-1 cells; test: CellTiter-Glo 2.0 Cytotoxicity Assay; assay type: cell-based; conditions: Homo sapiens, JeKo-1, read-out: Jeko-1 EC50 (nM), Jeko-1 cells, 3000 cells/well; compounds added Day 1; CellTiter-Glo 2.0 luminescence read on Day 4 or 5
Protocol: Reaction progress and synthetic intermediate analysis were assessed by LCMS (UV detection with ESI, APCI, or other mass detection) when applicable using a MeCN/water gradient with either TFA, formic acid, or NH4HCO3 modifier. Silica gel and reverse-phase flash column chromatography were conducted with commercially available pre-packed columns. Reverse-phase preparative HPLC purification was performed on preparative HPLC instruments with UV and MS detection using a MeCN/water gradient with either TFA, formic acid, or NH4OH modifier. ^1H NMR spectra were collected at room temperature, and chemical shifts are reported in ppm relative to the residual proteo-solvent signals, and multiplicities, coupling constants (where applicable), and signal integrations are listed parenthetically. Unless otherwise noted, all EC50 data presented in tables refers to the CellTiter-Glo® 2.0 Cytotoxicity Assay that is described in the Biological Assay section.
CellTiter-Glo® 2.0 Cytotoxicity Assay
Step 1: Seed 384-Well Plates for Assay (45 μL Per Well) on Day 0
Jeko-1 cells were quickly thawed in a cryo-vial by incubating them in a 37° C. water bath for <1 min until there is just a small bit of ice left in the vial. The vial was promptly removed and wiped down with 70% ethanol. The cells were transferred from the vial to a sterile centrifuge tube containing 8 mL of pre-warmed cell culture medium. The vial was flushed with an additional 1 mL of medium to ensure complete transfer of cells to the centrifuge tube. The cells were then centrifuged at 150×g for 5 minutes. The supernatant was aspirated, and the cell pellet was resuspended in 10-20 mL cell culture medium. Cells were counted using Vi-cell and prepared 6.6×10^4 cells/ml, 3000 cells/45 μL per well. Then added 45 μL/well of cells into Corning® 384-well Low Flange White Flat Bottom Polystyrene TC-treated Microplates (Corning, Cat #3570) using Standard Cassette Combi (if needed, dispense 1 dummy plate at 20 μL to help normalize Combi, using medium speed). The plates were spun down at 150×g for 30 seconds.
Step 2: Add Compounds on Day 1
The compound plates and reference compound stock were taken out and allowed to thaw at RT. The tubes were centrifuged at 2000×g for 30 seconds. The 10× Intermediate assay plates (Greiner plate, Cat #781280) were prepared using an Echo liquid handler. Proper buffer (HBSS (Gibco, Cat #14025-092)+10 mM HEPES (Gibco, Cat #15630-080)+0.1% BSA (Sigma, Cat #A9576)) were used to make serial dilutions. Media (no cells) was used for Max_E. Compound (5 μL of 10×) was transferred from intermediate plate to assay plate using a Bravo liquid handler using a very slow speed so the cell monolayer wasn't disturbed. The plates were spun down at 150×g for 30 seconds.
Step 3: CellTiter-Glo 2.0 Assay (Promega, Cat #G9242) on Day 4 or 5 (CellTiter-Glo Kit Stored at −70° C.)
The CellTiter-Glo® 2.0 Reagent was thawed at 4° C. overnight, taking care not to expose the reagent to temperatures above 25° C.). The kit was equilibrated to RT for approximately 30 minutes. CellTiter-Glo® 2.0 Reagent (20 μl) was added to 50 μl of medium containing cells using Standard Cassette Combi. The contents were mixed for 2-3 minutes on an orbital shaker to induce cell lysis. The plates were spun down at 150×g for 30 seconds. The plates were allowed to incubate at RT for 5 minutes to stabilize the luminescent signal.
Illustrative compounds of the present disclosure were tested in the above assay in Example 15, and results are provided in the Table 9 below: […]

| Structure (SMILES) | EC50 |
| --- | --- |
| CC[C@@]1(O)C(=O)OCc2c1cc1n(c2=O)Cc2c-1nc1cc(F)c(C)c3c1c2[C@@H](NC(=O)[C@H](O)CCO)CC3 (single isomer, unassigned) [Compound 1] | 1.4 nM |
| CC[C@@]1(O)C(=O)OCc2c1cc1n(c2=O)Cc2c-1nc1cc(F)c(C)c3c1c2[C@@H](NC(=O)C(F)(F)C(C)O)CC3 (single isomer, unassigned) [Compound 7] | 1.7 nM |
| CC[C@@]1(O)C(=O)OCc2c1cc1n(c2=O)Cc2c-1nc1cc(F)c(C)c3c1c2[C@@H](NC(=O)C(CO)C(F)(F)F)CC3 (single isomer, unassigned) [Compound 10] | 4.4 nM |
| CC[C@@]1(O)C(=O)OCc2c1cc1n(c2=O)Cc2c-1nc1cc(F)c(C)c3c1c2[C@@H](NC(=O)C(N)C(F)(F)F)CC3 (single isomer, unassigned) [Compound 14] | 2.8 nM |
| CC[C@@]1(O)C(=O)OCc2c1cc1n(c2=O)Cc2c-1nc1cc(F)c(C)c3c1c2[C@@H](NC(=O)C(C)(N)C(F)(F)F)CC3 (single isomer, unassigned) [Compound 16] | 1.6 nM |
| CC[C@@]1(O)C(=O)OCc2c1cc1n(c2=O)Cc2c-1nc1cc(F)c(C)c3c1c2[C@@H](NC(=O)C(CO)C1CC1)CC3 (single isomer, unassigned) [Compound 22] | 4.3 nM |
| CC[C@@]1(O)C(=O)OCc2c1cc1n(c2=O)Cc2c-1nc1cc(F)c(C)c3c1c2[C@@H](NC(=O)C(C)(F)CO)CC3 (single isomer, unassigned) [Compound 36] | 2.4 nM |
| CC[C@@]1(O)C(=O)OCc2c1cc1n(c2=O)Cc2c-1nc1cc(F)c(C)c3c1c2[C@@H](NC(=O)C(C)(CCO)C(F)F)CC3 (single isomer, unassigned) [Compound 39] | 4.9 nM |
| CC[C@@]1(O)C(=O)OCc2c1cc1n(c2=O)Cc2c-1nc1cc(F)c(C)c3c1c2[C@@H](NC(=O)[C@@H](O)CCO)CC3 [Compound 2] | 6.6 nM |
| CC[C@@]1(O)C(=O)OCc2c1cc1n(c2=O)Cc2c-1nc1cc(F)c(C)c3c1c2[C@@H](NC(=O)[C@H](O)C(C)(C)CO)CC3 [Compound 3] | 4.1 nM |
| CC[C@@]1(O)C(=O)OCc2c1cc1n(c2=O)Cc2c-1nc1cc(F)c(C)c3c1c2[C@@H](NC(=O)C(C)(CO)CO)CC3 [Compound 6] | 2.9 nM |
| CC[C@@]1(O)C(=O)OCc2c1cc1n(c2=O)Cc2c-1nc1cc(F)c(C)c3c1c2[C@@H](NC(=O)C(F)(F)CO)CC3 [Compound 9] | 4 nM |
| CC[C@@]1(O)C(=O)OCc2c1cc1n(c2=O)Cc2c-1nc1cc(F)c(C)c3c1c2[C@@H](NC(=O)C(C)(N)C(F)F)CC3 (stereo partly drawn) [Compound 13] | 4.2 nM |
| CC[C@@]1(O)C(=O)OCc2c1cc1n(c2=O)Cc2c-1nc1cc(F)c(C)c3c1c2[C@@H](NC(=O)C(C)(N)C1CC1)CC3 (stereo partly drawn) [Compound 20] | 5.2 nM |
| CC[C@@]1(O)C(=O)OCc2c1cc1n(c2=O)Cc2c-1nc1cc(F)c(C)c3c1c2[C@@H](NC(=O)[C@H](O)CCOC(F)F)CC3 [Compound 21, (R)-4-(difluoromethoxy)-N-((1S,9S)-9-ethyl-5-fluoro-9-hydroxy-4-methyl-10,13-dioxo-2,3,9,10,13,15-hexahydro-1H,12H-benzo[de]pyrano[3′,4′: 6,7]indolizino[1,2-b]quinolin-1-yl)-2-hydroxybutanamide] | 3.6 nM |
| CC[C@@]1(O)C(=O)OCc2c1cc1n(c2=O)Cc2c-1nc1cc(F)c(C)c3c1c2[C@@H](NC(=O)[C@@H](O)CO)CC3 [Compound 28, (1S,9S)-1-((S)-2,3-dihydroxypropanamido)-9-ethyl-5-fluoro-9-hydroxy-4-methyl-10,13-dioxo-2,3,9,10,13,15-hexahydro-1H,12H-benzo[de]pyrano[3′,4′: 6,7]indolizino[1,2-b]quinolin-7-ium hexafluorophosphate (V)] | 9.7 nM |

same assay, conditions: Homo sapiens; Jeko-1 cells, 3000 cells/well; compounds added Day 1; CellTiter-Glo 2.0 luminescence read on Day 4 or 5; read-out: Jeko-1 EC50

| Structure (SMILES) | EC50 |
| --- | --- |
| CC[C@@]1(O)C(=O)OCc2c1cc1n(c2=O)Cc2c-1nc1cc(F)c(C)c3c1c2[C@@H](NC(=O)C(C)(C)CO)CC3 [Compound 24, N-((1S,9S)-9-ethyl-5-fluoro-9-hydroxy-4-methyl-10,13-dioxo-2,3,9,10,13,15-hexahydro-1H,12H-benzo[de]pyrano[3′,4′: 6,7]indolizino[1,2-b]quinolin-1-yl)-3-hydroxy-2,2-dimethylpropanamide] | 1.8 nM |
| CC[C@@]1(O)C(=O)OCc2c1cc1n(c2=O)Cc2c-1nc1cc(F)c(C)c3c1c2[C@@H](NC(=O)C[C@H](C)O)CC3 [Compound 25] | 2.6 nM |
| CC[C@@]1(O)C(=O)OCc2c1cc1n(c2=O)Cc2c-1nc1cc(F)c(C)c3c1c2[C@@H](NC(=O)C[C@@H](C)O)CC3 [Compound 26] | 2.9 nM |
| CC[C@@]1(O)C(=O)OCc2c1cc1n(c2=O)Cc2c-1nc1cc(F)c(C)c3c1c2[C@@H](NC(=O)CCO)CC3 [Compound 27] | 3.1 nM |

same assay, conditions: read-out: Jeko-1 EC50; Jeko-1 cells, 3000 cells/well; compounds added Day 1; CellTiter-Glo 2.0 luminescence read on Day 4 or 5

| Structure (SMILES) | EC50 |
| --- | --- |
| CC[C@@]1(O)C(=O)OCc2c1cc1n(c2=O)Cc2c-1nc1cc(F)c(C)c3c1c2[C@@H](NC(=O)C(C)(O)CO)CC3 (single isomer, unassigned) [Compound 4] | 1.2 nM |
| CC[C@@]1(O)C(=O)OCc2c1cc1n(c2=O)Cc2c-1nc1cc(F)c(C)c3c1c2[C@@H](NC(=O)C(C)(O)CO)CC3 (single isomer, unassigned) [Compound 5] | 6.7 nM |
| CC[C@@]1(O)C(=O)OCc2c1cc1n(c2=O)Cc2c-1nc1cc(F)c(C)c3c1c2[C@@H](NC(=O)C(F)(F)C(C)O)CC3 (single isomer, unassigned) [Compound 8] | 1.6 nM |
| CC[C@@]1(O)C(=O)OCc2c1cc1n(c2=O)Cc2c-1nc1cc(F)c(C)c3c1c2[C@@H](NC(=O)C(CO)C(F)(F)F)CC3 (single isomer, unassigned) [Compound 11] | 5.3 nM |
| CC[C@@]1(O)C(=O)OCc2c1cc1n(c2=O)Cc2c-1nc1cc(F)c(C)c3c1c2[C@@H](NC(=O)C(N)C(F)(F)F)CC3 (single isomer, unassigned) [Compound 15] | 2.9 nM |
| CC[C@@]1(O)C(=O)OCc2c1cc1n(c2=O)Cc2c-1nc1cc(F)c(C)c3c1c2[C@@H](NC(=O)C(C)(N)C(F)(F)F)CC3 (single isomer, unassigned) [Compound 17] | 2 nM |
| CC[C@@]1(O)C(=O)OCc2c1cc1n(c2=O)Cc2c-1nc1cc(F)c(C)c3c1c2[C@@H](NC(=O)C(N)(Cc1ccccc1)C(F)(F)F)CC3 (single isomer, unassigned) [Compound 18] | 44 nM |
| CC[C@@]1(O)C(=O)OCc2c1cc1n(c2=O)Cc2c-1nc1cc(F)c(C)c3c1c2[C@@H](NC(=O)C(N)(Cc1ccccc1)C(F)(F)F)CC3 (single isomer, unassigned) [Compound 19] | 5.7 nM |
| CC[C@@]1(O)C(=O)OCc2c1cc1n(c2=O)Cc2c-1nc1cc(F)c(C)c3c1c2[C@@H](NC(=O)C(CO)C1CC1)CC3 (single isomer, unassigned) [Compound 23] | 4.6 nM |
| CC[C@@]1(O)C(=O)OCc2c1cc1n(c2=O)Cc2c-1nc1cc(F)c(C)c3c1c2[C@@H](NC(=O)C(F)CO)CC3 (single isomer, unassigned) [Compound 34] | 4.3 nM |
| CC[C@@]1(O)C(=O)OCc2c1cc1n(c2=O)Cc2c-1nc1cc(F)c(C)c3c1c2[C@@H](NC(=O)C(F)CO)CC3 (single isomer, unassigned) [Compound 35] | 1.5 nM |
| CC[C@@]1(O)C(=O)OCc2c1cc1n(c2=O)Cc2c-1nc1cc(F)c(C)c3c1c2[C@@H](NC(=O)C(C)(F)CO)CC3 (single isomer, unassigned) [Compound 37] | 3.1 nM |
| CC[C@@]1(O)C(=O)OCc2c1cc1n(c2=O)Cc2c-1nc1cc(F)c(C)c3c1c2[C@@H](NC(=O)C(C)(CCO)C(F)F)CC3 (single isomer, unassigned) [Compound 40] | 4.6 nM |
